This note sets out measurements from patent US9611276B2, “Imidazo bicyclic iminium compounds as antitumor agents” (THE BOARD OF TRUSTEES OF THE LELAND STANFORD JUNIOR …, priority 2012, dated 2017).

By IC50 is commonly meant the point on the concentration scale where inhibition reaches its midpoint.

One assay concerns Hh pathway activity. The assay can be described thus: Sufu-KO-LIGHT cell assay, Gli-dependent firefly luciferase reporter. Particulars: Mus musculus. Type of assay: cell-based, mouse. Here is the method: Sufu-KO-LIGHT cells were derived from Sufu knockout mouse embryonic fibroblasts according to the method of Chen et al. [Genes Dev. 2009; 23(16):1910-28.] The cells were co-transfected with the zeocin resistance vector (pVgRXR, Invitrogen) and a firefly luciferase reporter driven by eight Gli binding sites and a γ-crystallin basal promoter (8XGliBS-FL) [see Sasaki et al. Development. 1997; 124(7):1313-22.2]. […] Sufu-KO-LIGHT cells were cultured in DMEM (Invitrogen, 11965) containing 10% (v/v) fetal bovine serum (Invitrogen, No. 26140), 150 μg/mL zeocin (Invitrogen, R250-01), 1 mM sodium pyruvate (Invitrogen, 11360) and 1× PenStrep (Gibco, 15140).
All test compounds were dissolved in DMSO at 50 mM, serially diluted by 1:3, 1:4 or 1:5 in a 96-well translucent microplate (Greiner bio-one, 650201) and stored at −20° C. These serial dilutions were added to assay media freshly with final DMSO concentration of 0.2% (v/v).
The Sufu-KO-LIGHT cell assay provides a measure of Hh pathway activity and cytotoxicity. Sufu-KO-LIGHT cells were seeded into a 96-well plate (35,000 cells/well), cultured to confluency for 24 hrs and then incubated with test compounds in DMEM without phenol red (Invitrogen, 26140) containing 0.5% (v/v) fetal bovine serum (Invitrogen, No. 26140), 150 μg/mL zeocin (Invitrogen, R250-01), 1 mM sodium pyruvate (Invitrogen, 11360), 1× PenStrep (Gibco, 15140) for 16 hrs. Bright Glo (Promega, E2620) reagent (50 μL/well) was added to the cells, and luciferase activities were determined on a microplate luminometer (Veritas). To assess cytotoxicity, after 15 hrs of incubation with test compounds, CellTiter 96 AQueous One Solution Cell Proliferation Assay (Promega, G3580) reagent (20 μL/well) was added. Cell viability was determined by measuring absorption at 490 nm after 1 hr of incubation on a microplate spectrophotometer (Benchmark Plus, Bio-Rad). Biological triplicates were analyzed for each test compounds.
(In general: In a reporter assay the amount or activity of a reporter protein is the signal.)

In the next assay the test system is Gli2. Description: Gli2 trafficking assay in NIH 3T3 cells. Type of assay: cell-based. As to conditions: ShhN treatment. Here is the method:
NIH 3T3 cells were also employed in an assay to quantify Gli2 trafficking NIH-3T3 cells were seeded into 24-well plates containing poly-D-lysine-coated 12-mm glass coverslips (65,000 cells/well) and cultured for 24 hrs. […] Each compound or vehicle treatment was conducted in biological triplicates in the presence or absence of 10% (v/v) ShhN-conditioned medium. The cells were subsequently fixed in PBS containing 4% (v/v) paraformaldehyde for 12 min at room temperature, washed three times with PBS, permeabilized in PBS containing 0.5% (v/v) Triton X-100 for 5 min, and washed again twice in PBS. […] After three PBS washes, the coverslips were mounted onto slides using Prolong Gold Antifade Reagent with DAPI (Invitrogen, P36931). The cells were imaged using a Plan Apochromat 63×/1.4-0.6 oil immersion objective on an upright Leica DM4500B compound microscope. Ciliary Gli2 levels were quantified by determining total pixel intensity within a circular region manually placed at the distal end of each cilium and subtracting background fluorescence in an adjacent region of equivalent size. A total of 30 cilia from three coverslips were analyzed to determine the average ciliary Gli2 level for each experimental condition as a measure of Gli2 trafficking.

For the next assay, the target named is T1, Smo (Mus musculus, UniProt P56726).
T1 construct: endogenous in cells; host or cells: NIH 3T3
Description: Smo trafficking assay in NIH 3T3 cells. Type of assay: cell-based. As to conditions: Hh-responsive cells, ShhN stimulation. From the text: The cells were imaged using a Plan Apochromat 63×/1.4-0.6 oil immersion objective on an upright Leica DM4500B compound microscope.

For a further assay, the system named is BCC cell line. Description: Murine basal cell carcinoma (BCC) cell proliferation. Type of assay: cell-based, mouse. From the text:
(§1) Murine basal cell carcinomas (BCCs) were derived from Ptch1+/−; p53−/− mice subjected to UV radiation [Aszterbaum et al., Nat. Med. (1999) 5:1285-91]. A line resistant to the Smo antagonist SANT-1 was obtained by culturing the cells in media containing increasing concentrations of the inhibitor until the majority of cells were killed and resistant clones emerged.

The test system of assay [1] is SANT-1-resistant BCC line. The assay can be described thus: Proliferation of SANT-1-resistant BCC line. Type of assay: cell-based, mouse.
Text: as §1

The next assay relates to BCC allograft tumors. Description: Murine BCC allograft model. Type of assay: in vivo, mouse. Particulars: 0.01% solution, topical, day 14. Here is the method:
Murine BCC allograft model: Ptch1+/−; K14:Cre-ER2; p53fl/fl mice were injected with tamoxifen (to knock out p53) at six weeks of age, and at 8 weeks of age they were given one dose of 4 Gy of ionizing radiation. After BCCs formed and grew to 5-7 mm in diameter (typically between 6-8 months of age), they were harvested and dissociated to prepare a cell suspension. A mixture of the cell suspension and Matrigel was then injected subcutaneously into NOD/SCID mice purchased from Jackson Laboratories. Once the allografted tumors became visible, they were monitored with digital calipers and the volume was estimated by the formula (d^2)*D/2, where d is the smallest diameter of the tumor and D is the largest diameter. The compound was applied topically to the tumor as a DMSO solution (100 μL per application).

Assay [2] deals with medulloblastoma allograft tumors. Description: Murine medulloblastoma allograft model. Type of assay: in vivo, mouse. As to conditions: 2 mg/kg/day, intraperitoneal, day 5. Here is the method:
Murine medulloblastoma allograft model: Ptch1+/−; p53+/−; Math1:GFP mice were mated to generate pups with the appropriate genotype of Ptch1+/−; p53−/−; Math1:GFP. These mice will get medulloblastoma tumors when they are 6 to 10 weeks of age. The primary medulloblastoma tumors were harvested, dissected, dissociated by papain treatment and tissue trituration, and injected into the flanks of nude mice as a Matrigel mixture (50 μL of 2×10^7 tumor cells mixed with 50 μL of Matrigel). Secondary and tertiary tumors can subsequently be derived from these allografts as necessary. The length, width, and depth of each allograft were monitored, and compound testing began when the tumors reached a volume of 150 mm3 (approximately one week after tumors were first visible). The compounds were dissolved in a minimum volume of DMSO, and the DMSO solution was mixed with sterile corn oil so that the DMSO constituted less than 10% of the total volume. The drug was administered by intraperitoneal injection (50 μL), with each daily dose divided into two portions and administered at 12-hour intervals. The Smoothened antagonist vismodegib was administered at 50 mg/kg/day as a positive control.

Where [3] appears, read: Table 1, assay not given, A-1 value equals the Sufu-KO-LIGHT value, read-out: IC50.
[4] abbreviates: Table 2, assay not given, read-out: IC50.
[5] abbreviates: Table 3, assay not given, read-out: IC50.

Like-named read-outs stand apart in the source and are kept apart here.

T1 sequence (P56726 33-793): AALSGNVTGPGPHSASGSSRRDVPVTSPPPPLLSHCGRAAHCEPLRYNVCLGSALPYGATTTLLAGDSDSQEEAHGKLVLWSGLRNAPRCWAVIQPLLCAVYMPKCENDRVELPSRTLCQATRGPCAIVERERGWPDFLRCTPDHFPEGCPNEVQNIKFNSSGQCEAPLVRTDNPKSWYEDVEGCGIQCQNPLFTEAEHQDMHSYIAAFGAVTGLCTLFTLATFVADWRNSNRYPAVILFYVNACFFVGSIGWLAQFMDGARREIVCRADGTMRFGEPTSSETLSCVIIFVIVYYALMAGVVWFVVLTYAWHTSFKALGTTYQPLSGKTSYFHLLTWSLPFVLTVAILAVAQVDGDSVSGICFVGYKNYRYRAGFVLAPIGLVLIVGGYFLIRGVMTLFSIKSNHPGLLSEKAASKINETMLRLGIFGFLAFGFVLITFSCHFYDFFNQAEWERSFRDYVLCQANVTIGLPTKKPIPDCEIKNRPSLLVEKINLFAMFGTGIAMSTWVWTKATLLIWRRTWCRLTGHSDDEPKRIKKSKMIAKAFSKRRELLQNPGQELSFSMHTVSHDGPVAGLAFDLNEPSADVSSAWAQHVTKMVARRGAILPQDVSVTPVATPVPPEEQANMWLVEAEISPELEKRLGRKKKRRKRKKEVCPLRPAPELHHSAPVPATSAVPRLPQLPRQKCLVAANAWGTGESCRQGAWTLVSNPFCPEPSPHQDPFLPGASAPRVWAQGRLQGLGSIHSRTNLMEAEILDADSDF

In the assay with Hh pathway activity, `Clc1ccc(-[n+]2cc(-c3ccc(Br)cc3)n3c2CCCCC3)cc1` [Compound A-6] gave a half-maximal inhibitory concentration (IC50) of 11.7 µM.
In the case of `CCOc1ccc(-[n+]2cc(-c3ccccc3)n3c2CCCCC3)cc1` [Compound A-9], in the assay with Hh pathway activity (setting [3]), the concentration for half-maximal inhibition (IC50) worked out at 1.7 µM.
As to `COc1ccc(-c2cn3c([n+]2-c2ccccc2OC)CCCCC3)cc1` [Compound C-2], in the assay with Hh pathway activity (setting [4]), the half-maximal inhibitory concentration (IC50) was determined as 3.1 µM.
Regarding `COc1ccc(-[n+]2cc(-c3ccc(C)cc3)n3c2SC(C)C3)cc1` [Compound D-3], the half-inhibitory concentration (IC50) with Hh pathway activity (setting [5]) was 1.1 µM.
As for `CCOc1ccc(-[n+]2cc(-c3ccccc3)n3c2CCC3)cc1` [Compound D-1], the concentration for half-maximal inhibition (IC50) in the assay with Hh pathway activity (setting [5]) stood at 0.96 µM.
As to `CCOc1ccc(-c2c[n+](-c3ccccc3OC)c3n2CCCCC3)cc1` [Compound A-18], the IC50 with Hh pathway activity (setting [3]) stood at 0.08 µM.
`COc1ccc(-c2c[n+](-c3ccc(Br)cc3)c3n2CCCCC3)cc1` [Compound A-15] returned a half-maximal inhibitory concentration (IC50) in the assay on Hh pathway activity of 3.3 µM.
Regarding `COc1ccccc1-[n+]1cc(-c2ccc(-c3ccccc3)cc2)n2c1CCCCC2` [Compound A-19], in the assay on Hh pathway activity (setting [3]), the IC50 was found to be 0.03 µM.
Consider `CC1=C2C[C@H]3[C@@H](CC=C4C[C@@H](O)CC[C@@]43C)[C@@H]2CC[C@]12O[C@@H]1C[C@H](C)CN[C@H]1[C@H]2C` [cyclopamine, reference compound], for which the “Effect on ShhN-induced Gli2 accrual at the ciliary distal tip” value in the assay with Gli2 is “cyclopamine-sensitive”. For the same compound, the “Effect on Smo localization / trafficking” value on Smo is “alters Smo trafficking”.
For `Clc1ccc(-c2cn3c([n+]2-c2ccc(Cl)cc2)CCCCC3)cc1` [Compound C-9], the IC50 with Hh pathway activity (setting [4]) is 27 µM.
Consider `CCc1ccc(-[n+]2cc(-c3ccc(OC(F)F)cc3)n3c2CCCCC3)cc1` [Compound A-17], for which, in the assay with Hh pathway activity (setting [3]), the IC50 was 2.9 µM.
With `COc1ccc(-c2cn3c([n+]2-c2ccc(Cl)cc2)CCCCC3)cc1` [Compound C-4], in the assay with Hh pathway activity (setting [4]), the half-inhibitory concentration (IC50) worked out at 11.5 µM.
Regarding `CCOc1ccc(-[n+]2cc(-c3ccc(-c4ccccc4)cc3)n3c2CCCCC3)cc1` [Compound A-8], in the assay with BCC cell line, the “Proliferation of original BCC cell line” value is recorded as “able to block the proliferation”. In the assay with BCC cell line (750 nM, dose-dependent), the BCC proliferation is given as 20 % of control. Moreover, the “Proliferation of SANT-1-resistant line” value in assay [1] was “able to block the proliferation”. Further, the “Tumor volume compared to control” value in the assay with BCC allograft tumors is reported as “reduced tumor volume by half”. In addition, the IC50 in the assay with Hh pathway activity (setting [3]) was 0.19 ± 0.14 µM.
For `COc1ccc(-c2cn3c([n+]2-c2ccc(C)cc2)CCCCC3)cc1` [Compound C-3], the IC50 in the assay with Hh pathway activity (setting [4]) worked out at 4.2 µM.
Take `COc1ccc(-[n+]2c(-c3ccc(OC(F)F)cc3)cn3c2CCCCC3)cc1` [Compound C-7]: the IC50 in the assay with Hh pathway activity (setting [4]) is 6.3 µM.
For `COc1ccc(-[n+]2cc(-c3ccc(Cl)cc3)n3c2CCCCC3)cc1` [Compound A-11], the half-inhibitory concentration (IC50) in the assay with Hh pathway activity (setting [3]) stood at 2.5 µM.
Take `COc1ccc(-[n+]2c(-c3ccccc3)cn3c2CCCCC3)cc1` [Compound C-8]: the IC50 in the assay on Hh pathway activity (setting [4]) came to 4.1 µM.
Compound `FC(F)(F)c1cccc(-[n+]2cc(-c3ccc(Br)cc3)n3c2CCCCC3)c1` [Compound A-5] came in with an IC50 in the assay with Hh pathway activity of 12.3 µM.
Take `COc1ccc(-[n+]2cc(-c3ccc(Cl)cc3)n3c2SCCC3)cc1` [Compound D-5]: in the assay with Hh pathway activity (setting [5]), the IC50 was 2.4 µM.
Regarding `COc1ccc(-c2c[n+](-c3ccc(OC)cc3)c3n2CCS3)cc1` [Compound D-2], the IC50 with Hh pathway activity (setting [5]) stood at 3.1 µM.
For `CCOc1ccc(-c2c(C)n3c([n+]2-c2ccc(OCC)cc2)CCCCC3)cc1` [Compound C-5], the IC50 in the assay on Hh pathway activity (setting [4]) turned out to be 1.2 µM.
As for `COc1ccc(-[n+]2cc(-c3ccc(OC(F)F)cc3)n3c2CCCCC3)cc1` [Compound A-12], the half-inhibitory concentration (IC50) in the assay on Hh pathway activity (setting [3]) is 13.9 µM.
Still for that read-out and setting: the same measure for `CCOc1ccc(-c2c[n+](-c3cccc(C(F)(F)F)c3)c3n2CCCCC3)cc1` [Compound A-16]: 7.4 µM.
With `COc1ccc(-[n+]2cc(-c3ccc(Br)cc3)n3c2SCC3C)cc1` [Compound D-4], the IC50 in the assay on Hh pathway activity (setting [5]) came to 2.6 µM.
The compound `Brc1ccc(-c2c[n+](-c3ccc4c(c3)OCCO4)c3n2CCCCC3)cc1` [Compound A-4] displayed a half-maximal inhibitory concentration (IC50) in the assay with Hh pathway activity of 5 µM.
Turning to `Brc1ccc(-c2c[n+](-c3ccccc3)c3n2CCCCC3)cc1` [Compound A-2], in the assay with Hh pathway activity, inhibition was half-maximal at 7.9 µM (IC50).
With `CCOc1ccc(-[n+]2cc(-c3ccc(Cl)cc3)n3c2CCCCC3)cc1` [Compound A-7], the 50% inhibitory concentration (IC50) with Hh pathway activity (setting [3]) was determined as 3 µM.
The same measure, in the same setting: the same measure for `CCOc1ccc(-[n+]2cc(-c3ccc(OC)cc3)n3c2CCCCC3)cc1` [Compound A-10]: 2.5 µM.
In the case of `CCOc1ccc(-c2c[n+](-c3ccc(OC)cc3)c3n2-c2ccccc2CC3)cc1.[Br-]` [Compound E-1], in assay [2], the “Tumor volume compared to control” value is reported as “reduced tumor volume by half”. The concentration for half-maximal inhibition (IC50) with Hh pathway activity (setting [5]) was determined as 0.14 µM.
`COc1ccccc1-[n+]1cc(-c2ccc(Br)cc2)n2c1CCCCC2` [Compound A-3]: the IC50 with Hh pathway activity turned out to be 0.34 µM.
On to `COc1ccc(-[n+]2c(-c3ccc(Cl)cc3)cn3c2CCCCC3)cc1` [Compound C-6], for which the IC50 in the assay on Hh pathway activity (setting [4]) was found to be 11.7 µM.
On to `CCOc1ccc(-[n+]2c(-c3ccc(OC)cc3)cn3c2CCCCC3)cc1` [Compound C-1], for which the IC50 in the assay on Hh pathway activity (setting [4]) came out at 1.6 µM.
Turning to `FC(F)Oc1ccc(-[n+]2cc(-c3ccc(Cl)cc3)n3c2CCCCC3)cc1` [Compound A-13], the concentration for half-maximal inhibition (IC50) with Hh pathway activity (setting [3]) turned out to be 17.5 µM.
`COc1ccc(-c2c[n+](-c3ccc(OC)cc3)c3n2CCOC3)cc1` [Compound D-6]: in the assay with Hh pathway activity (setting [5]), the IC50 came out at 14.1 µM.
